The target of test [1] is T1, von Hippel-Lindau disease tumor suppressor/Serine/threonine-protein kinase PAK 1 (Homo sapiens, UniProt Q13153+P40337). Nature of the test: PROTAC activity at VHL/PAK1 in human MDA-MB-231 cells assessed as induction of protein degradation at 2.5 uM incubated for 48 hrs by Western blot analysis relative to control. In kind it is cell-based. On the technique in general: Immunoblotting shows a protein as a band on a membrane.

The subject of a further test is MDA-MB-231. Nature of the test: Antiproliferative activity against human MDA-MB-231 cells incubated for 48 hrs by MTT assay. In kind it is functional, cell-based. The note with it: MDA-MB-231, 48 h.
Test [2] addresses T1, von Hippel-Lindau disease tumor suppressor/Serine/threonine-protein kinase PAK 1. Description: PROTAC activity at VHL/PAK1 in human MDA-MB-231 cells assessed as fold change in protein expression at 2.5 uM incubated for 48 hrs by Western blot analysis relative to control. In kind it is cell-based.

T1 sequence (Q13153 2-545 limits assumed): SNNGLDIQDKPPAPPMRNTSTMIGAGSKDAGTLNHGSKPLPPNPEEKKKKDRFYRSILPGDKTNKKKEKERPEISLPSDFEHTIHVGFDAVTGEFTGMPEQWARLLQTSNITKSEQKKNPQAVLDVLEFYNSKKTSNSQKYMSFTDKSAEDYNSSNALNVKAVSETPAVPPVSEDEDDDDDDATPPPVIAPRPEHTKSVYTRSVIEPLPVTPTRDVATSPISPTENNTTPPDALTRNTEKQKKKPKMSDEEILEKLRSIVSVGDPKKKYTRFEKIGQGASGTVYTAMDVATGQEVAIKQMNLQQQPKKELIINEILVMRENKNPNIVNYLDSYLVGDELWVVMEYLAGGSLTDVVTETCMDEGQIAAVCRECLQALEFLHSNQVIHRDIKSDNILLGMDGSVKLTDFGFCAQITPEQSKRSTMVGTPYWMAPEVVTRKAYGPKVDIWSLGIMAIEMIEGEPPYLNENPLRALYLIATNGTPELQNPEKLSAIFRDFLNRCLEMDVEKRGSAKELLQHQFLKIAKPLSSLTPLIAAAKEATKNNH
T1 sequence (P40337 whole entry partner): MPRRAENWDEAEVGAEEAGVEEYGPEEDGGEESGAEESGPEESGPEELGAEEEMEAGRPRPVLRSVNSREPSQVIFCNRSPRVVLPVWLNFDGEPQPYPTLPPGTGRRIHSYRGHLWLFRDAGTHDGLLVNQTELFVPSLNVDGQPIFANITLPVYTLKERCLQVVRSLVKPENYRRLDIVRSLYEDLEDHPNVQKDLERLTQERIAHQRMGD

As usually defined, the IC50 is the concentration that inhibits the measured activity by half. The low end stands for inhibition by little substance, the high end for a need for much substance. Regarding `Cc1ncsc1-c1ccc([C@H](C)NC(=O)[C@@H]2C[C@@H](O)CN2C(=O)[C@@H](NC(=O)CCCc2cn(CCCCn3c(=O)c(-c4ccc(Cl)cc4Cl)cc4cnc(NC5CC5)nc43)nn2)C(C)(C)C)cc1`, the Activity in test [1] was found to be 32.1%. In the test with MDA-MB-231, this compound displayed an IC50 of 33.2 µM. The fold change (FC) in test [2] stood at 0.679.

Turning to `Cc1ncsc1-c1ccc([C@H](C)NC(=O)[C@@H]2C[C@@H](O)CN2C(=O)[C@@H](NC(=O)CCCCc2cn(CCOCCOCCn3c(=O)c(-c4ccc(Cl)cc4Cl)cc4cnc(NC5CC5)nc43)nn2)C(C)(C)C)cc1`, the Activity in test [1] was -4.8%. Also, the IC50 in the test with MDA-MB-231 was greater than 50 µM. Further, the fold change (FC) in test [2] turned out to be 1.05.

For the compound `Cc1ncsc1-c1ccc([C@H](C)NC(=O)[C@@H]2C[C@@H](O)CN2C(=O)[C@@H](NC(=O)CCCCc2cn(CCOCCn3c(=O)c(-c4ccc(Cl)cc4Cl)cc4cnc(NC5CC5)nc43)nn2)C(C)(C)C)cc1`, in test [1], the Activity worked out at 30.1%. In the test with MDA-MB-231, the IC50 is 35.8 µM. Besides, in test [2], the fold change (FC) is 0.699.

Consider `Cc1ncsc1-c1ccc([C@H](C)NC(=O)[C@@H]2C[C@@H](O)CN2C(=O)[C@@H](NC(=O)CCc2cn(CCCCCn3c(=O)c(-c4ccc(Cl)cc4Cl)cc4cnc(NC5CC5)nc43)nn2)C(C)(C)C)cc1`, for which the Activity in test [1] amounted to 17.4%. Further, the IC50 with MDA-MB-231 is greater than 50 µM. The fold change (FC) in test [2] amounted to 0.826.

As to `Cc1ncsc1-c1ccc([C@H](C)NC(=O)[C@@H]2C[C@@H](O)CN2C(=O)[C@@H](NC(=O)CCCc2cn(CCOCCn3c(=O)c(-c4ccc(Cl)cc4Cl)cc4cnc(NC5CC5)nc43)nn2)C(C)(C)C)cc1`, the Activity in test [1] was 31.7%. In the test on MDA-MB-231, this compound registered an IC50 of 27.1 µM. For the same compound, in test [2], the fold change (FC) was found to be 0.683.

As for `Cc1ncsc1-c1ccc([C@H](C)NC(=O)[C@@H]2C[C@@H](O)CN2C(=O)[C@@H](NC(=O)CCc2cn(CCOCCOCCn3c(=O)c(-c4ccc(Cl)cc4Cl)cc4cnc(NC5CC5)nc43)nn2)C(C)(C)C)cc1`, the Activity in test [1] amounted to 3.8%. In the test with MDA-MB-231, this compound yielded an IC50 greater than 50 µM. For the same compound, the fold change (FC) in test [2] was 0.962.

For the compound `Cc1ncsc1-c1ccc([C@H](C)NC(=O)[C@@H]2C[C@@H](O)CN2C(=O)[C@@H](NC(=O)CCc2cn(CCCCn3c(=O)c(-c4ccc(Cl)cc4Cl)cc4cnc(NC5CC5)nc43)nn2)C(C)(C)C)cc1`, the Activity in test [1] came to 10.4%. The same compound registered an IC50 in the test on MDA-MB-231 greater than 50 µM. Further, the fold change (FC) in test [2] was found to be 0.896.

Consider `Cc1ncsc1-c1ccc([C@H](C)NC(=O)[C@@H]2C[C@@H](O)CN2C(=O)[C@@H](NC(=O)CCCCc2cn(CCCCn3c(=O)c(-c4ccc(Cl)cc4Cl)cc4cnc(NC5CC5)nc43)nn2)C(C)(C)C)cc1`, for which the Activity in test [1] was found to be 14.4%. For the same compound, the IC50 with MDA-MB-231 was greater than 50 µM. For the same compound, the fold change (FC) in test [2] is 0.856.

With `Cc1ncsc1-c1ccc([C@H](C)NC(=O)[C@@H]2C[C@@H](O)CN2C(=O)[C@@H](NC(=O)CCCCc2cn(CCCCCCn3c(=O)c(-c4ccc(Cl)cc4Cl)cc4cnc(NC5CC5)nc43)nn2)C(C)(C)C)cc1`, the Activity in test [1] was 24.6%. In addition, the half-inhibitory concentration (IC50) in the test with MDA-MB-231 is greater than 50 µM. Besides, in test [2], the fold change (FC) was determined as 0.754.

As for `Cc1ncsc1-c1ccc([C@H](C)NC(=O)[C@@H]2C[C@@H](O)CN2C(=O)[C@@H](NC(=O)CCCc2cn(CCOCCOCCn3c(=O)c(-c4ccc(Cl)cc4Cl)cc4cnc(NC5CC5)nc43)nn2)C(C)(C)C)cc1`, the Activity in test [1] is 2.7%. For the same compound, the IC50 in the test with MDA-MB-231 was greater than 50 µM. Also, in test [2], the fold change (FC) turned out to be 0.973.

For the compound `Cc1ncsc1-c1ccc([C@H](C)NC(=O)[C@@H]2C[C@@H](O)CN2C(=O)[C@@H](NC(=O)CCCc2cn(CCCCCCn3c(=O)c(-c4ccc(Cl)cc4Cl)cc4cnc(NC5CC5)nc43)nn2)C(C)(C)C)cc1`, the Activity in test [1] is 29.1%. In the test on MDA-MB-231, the IC50 is greater than 50 µM. Moreover, the fold change (FC) in test [2] was determined as 0.709.

Regarding `Cc1ncsc1-c1ccc([C@H](C)NC(=O)[C@@H]2C[C@@H](O)CN2C(=O)[C@@H](NC(=O)CCCCc2cn(CCCCCCCn3c(=O)c(-c4ccc(Cl)cc4Cl)cc4cnc(NC5CC5)nc43)nn2)C(C)(C)C)cc1`, the Activity in test [1] amounted to 18.2%. The compound also displayed an IC50 in the test with MDA-MB-231 greater than 50 µM. Besides, in test [2], the fold change (FC) stood at 0.812.

Values taken from ChEMBL document CHEMBL6127034, “Design, synthesis and biological evaluation of a novel PAK1 degrader for the treatment of triple negative breast cancer” (Bioorg Med Chem, 2024).
